Earlier results as cited in patent publication US12708633B2, “Cannabidiol-dominant formulations, methods of manufacturing, and uses thereof” (Tilray Brands, Inc., priority 2021, dated 2026).

Key:
[1] = due to high intestinal permeability and low aqueous solubility
[2] = humans

Question: For C=C(C)[C@@H]1CCC(C)=C[C@H]1c1c(O)cc(CCCCC)cc1O [CBD, Cannabidiol], which “Biopharmaceutical Classification System (BCS) class” value [1] is on record?
Answer: Class II

Question: And the oral bioavailability [2]?
Answer: low
